Measurements reported in US20110152166A1, “METHOD OF MODULATION OF PROTEIN PHOSPHORYLATION-DEPENDENT CONFORMATIONAL TRANSITIONS WITH LOW MOLECULAR WEIGHT COMPOUNDS” (priority 2006, published 2011).
Ends that are not written are not given here.

Tests used:
PDK1 = biological target: T1, PDK1 (Homo sapiens, UniProt O15530); experiment: PDK1 thermal denaturation; details: data not shown
T1 sequence (O15530 1-556): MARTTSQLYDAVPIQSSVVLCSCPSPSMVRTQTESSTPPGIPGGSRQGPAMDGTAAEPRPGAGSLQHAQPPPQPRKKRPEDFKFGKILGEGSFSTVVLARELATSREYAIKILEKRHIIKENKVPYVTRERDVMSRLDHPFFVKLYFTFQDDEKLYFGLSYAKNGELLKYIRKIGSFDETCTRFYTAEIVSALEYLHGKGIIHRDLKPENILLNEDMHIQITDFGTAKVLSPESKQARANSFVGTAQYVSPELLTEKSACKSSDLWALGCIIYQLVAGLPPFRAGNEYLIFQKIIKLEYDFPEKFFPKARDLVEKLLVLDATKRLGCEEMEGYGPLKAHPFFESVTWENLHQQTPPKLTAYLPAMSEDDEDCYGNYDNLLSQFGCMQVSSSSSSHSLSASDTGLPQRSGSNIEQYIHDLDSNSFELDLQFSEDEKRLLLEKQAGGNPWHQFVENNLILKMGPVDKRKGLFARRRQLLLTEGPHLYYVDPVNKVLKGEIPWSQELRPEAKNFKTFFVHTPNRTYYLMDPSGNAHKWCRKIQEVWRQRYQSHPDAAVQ

[1] = test system: GST-S6K1-T2[Thr412Glu] in HEK 293 cells; experiment: S6K activity and activation loop phosphorylation in transfected HEK 293 cells; assay type: cell-based, human; details: 200 μM, 90 minutes
Protocol: FIG. 4—Small compounds designed to bind the HM/PIF-pocket of PDK1 can block the PDK1-dependent phosphorylation and activation of substrates that require docking to the HM/PIF-pocket of PDK1. (A) Effect of compound 1 (100 and 200 μM) on PDK1 phosphorylation of its substrate S6K1. The phosphorylation reaction was performed in vitro with [γ^32P]ATP and then separated on SDS-PAGE followed by exposure to phosphorimager. The radioactive band corresponding to phosphorylated GST-56K1-T2[Thr412Glu] (S6K[412E]) is indicated. (B) PDK1 or PDK1[Val127Leu] (PDK1[V127L]) were pre-incubated with GST-[…]N-SGK1 [Ser422Asp] […] (C) The activity of S6K was measured in vitro after glutathione sepharose purification; aliquots of purified proteins were separated on SDS-PAGE and the level of activation loop phosphorylation was visualized by immunoblotting using phospho-specific antibodies that recognize the phosphorylated activation loop, followed by stripping of the membranes and re-probing with anti-GST to verify the presence of equal amounts of protein. (D) Cells overexpressing GST-56K1-T2[Thr412Glu] were treated as in (C) but S6K activity was measured in vitro after immunoprecipitation of the GST-fusion protein with anti-GST antibodies; the level of S6K expression was analysed by western-blotting of crude extracts. […]

[2] = biological target: T2, PDK1 catalytic domain (50-360) (Homo sapiens, UniProt O15530); experiment: TNP-ATP/PDK1 fluorescence, conformation of the ATP binding site
T2 construct: the catalytic domain of PDK1 (50-359) produced in SF9 insect cells; His-tag (N, cleaved yes); made in house; host or cells: SF9 insect cells (baculovirus)
Protocol: FIG. 5—Modulation of PDK1 conformation by phosphopeptides and small compounds. Effect of P-HM-polypeptides and compound 1 on the emission fluorescence of trinitrophenyl-ATP (TNP-ATP)/PDK1. The fluorescence emission spectra from TNP-ATP were recorded in the presence or absence of P-HM-polypeptides, PIFtide and compound 1. (A) Effect of P-HM-RSK (65 μM) on the fluorescence by TNP-ATP. (B) Effect of compound 1 on the fluorescence emission from TNP-ATP. Fluorescence intensities are expressed as %. […] The effect of P-HM-PKB was identical to that by P-HM-RSK.
The activation of PDK1 by P-HM-polypeptides and small compounds is due to a change in the conformation of the enzyme. We probed the conformation of the ATP binding site in PDK1 by scanning the steady-state fluorescence of TNP-ATP/PDK1, in the presence or absence of P-HM-polypeptides, PIFtide, or small molecular weight compounds. Data were obtained in a Varian Cary Eclipse spectrofluorometer (excitation γ=479 nm; emission scanning, γ=500-600 nm; excitation slit=10 nm; emission slit=10 nm) at a rate of 200 nm/min, with 150 datapoints/100 nm scanning and 0.3 s averaging time. […] Non-phosphorylated HM-polypeptides increased the fluorescence intensity of TNP-ATP in the absence of PDK1 and were not used in the study. […]

Row | Compound | stabilization of PDK1 to thermal denaturation (in words) (PDK1) | S6K1-T2[Thr412Glu] activity after cell treatment (in words) [1] | phosphorylation at the activation loop of S6K1-T2[Thr412Glu] (in words) [1] | effect on TNP-ATP/PDK1 fluorescence (in words) ([2]; 40 μM TNP-ATP, 15 μM PDK1) | Emax ([2]; at 10 times the value of its Kd for PDK1, read-out: maximal effect on TNP-ATP fluorescence intensity) [%]
1 | O=C(O)CSC(CC(=O)c1ccc(Cl)cc1)c1ccccc1 (centres unmarked) [Compound 1] | did not stabilize | decrease | decrease in the phosphorylation at the activation loop | – | –
2 | REPRILSEEEQEMFRDFDYIADWC [PIFtide, reference compound] | – | – | – | decreased the intensity | 65
